Measurements reported in patent publication US12545659B2, “IRAK degraders and uses thereof” (Kymera Therapeutics, Inc., priority 2019, dated 2026).

target: T1, IRAK4 (Homo sapiens, UniProt Q9NWZ3); experiment: IRAK4 MSD Degradation in OCI-LY10; type: cell-based; conditions: OCI-LY10 cells, 4 hrs incubation, read-out: IRAK4 degradation in OCI-LY10 at 4 hrs: DC50
T1 construct: endogenous in cells; host or cells: OCI-LY10
T1 sequence (Q9NWZ3 1-460): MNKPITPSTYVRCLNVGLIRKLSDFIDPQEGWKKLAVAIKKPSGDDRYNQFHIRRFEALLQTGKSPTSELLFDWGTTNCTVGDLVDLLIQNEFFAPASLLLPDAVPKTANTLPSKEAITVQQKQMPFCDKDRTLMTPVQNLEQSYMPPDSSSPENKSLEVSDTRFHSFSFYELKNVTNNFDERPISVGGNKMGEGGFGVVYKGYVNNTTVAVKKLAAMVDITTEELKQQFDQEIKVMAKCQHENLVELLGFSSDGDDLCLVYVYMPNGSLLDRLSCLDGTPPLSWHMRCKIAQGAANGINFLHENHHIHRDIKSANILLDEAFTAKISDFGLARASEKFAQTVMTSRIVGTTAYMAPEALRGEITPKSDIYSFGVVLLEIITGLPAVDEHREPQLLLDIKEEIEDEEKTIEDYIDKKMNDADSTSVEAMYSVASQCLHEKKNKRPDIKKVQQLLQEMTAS
Procedure: Degradation of IRAK4 in OCI-LY10 was quantitatively measured using Meso Scale Discovery technology. […] Compounds were then added to the assay plates with a final top concentration of 1 to 10 μM in a 1:3 dilution series with total of 8 doses. The assay plates were then incubated for 4 to 24 hours at 37° C. under 5% C02. […] To prepare MSD assay plates (Meso Scale Discovery Catalog number L15XA-3), the plates were coated with […] capture antibody (mouse Anti-IRAK4 antibody [2H9], ab119942) in PBS, at 40 μL/well. […] Cell lysates were then added to MSD assay plates and the plates were incubated at room temperature for 1 hour. The plates were then washed 3 times with 150 μL/well TBST buffer and 25 μL/well primary detection antibody (rabbit Anti-IRAK4 antibody [Y279], from Abcam. Catalog number ab32511, 1 μg/mL). The assay plates were then incubated at room temperature for 1 hour, washed 3 times with 150 μL/well TBST buffer and 25 μL/well secondary detection antibody, SULFO-TAG anti-rabbit antibody were added (anti rabbit antibody from Meso Scale Discovery, Catalog number R32AB-1, 1 μg/mL). The assay plates were then incubated at room temperature for 1 hour, washed 3 times with 150 μL/well TBST buffer, and 150 μL/well MSD reading buffer (Meso Scale Discovery catalog number R92TC-2) was added. The plates were then analyzed by a MSD reader (Meso Scale Discovery, Model Quick Plex SQ 120). The data was then analyzed by software Prism 7.0 from GraphPad and the dose-depended IRAK4 degradation were fit using a three-parameter logistic equation to calculate DC50.
The letter codes for IRAK4 […] include: A (<0.05 μM); B (0.05-0.1 μM); C (0.1-0.5 μM); D (0.5-1.0 μM); and E (>1.0 μM).

SMILES | DC50 [µM]
COc1cc2nn([C@H]3CC[C@H](CN4CCC(CCCc5ccc6c(c5)n(C)c(=O)n6C5CCC(=O)NC5=O)CC4)CC3)cc2cc1NC(=O)c1cccc(C(F)(F)F)n1 (stereo partly shown) [I-145] | 0.05 to 0.1
Cn1c(=O)n(C2CCC(=O)NC2=O)c2cccc(CCN3CC4(CCN(C(=O)[C@H]5CC[C@H](n6cc7cc(NC(=O)c8cccc(C(F)(F)F)n8)c(C(C)(C)O)cc7n6)CC5)CC4)C3)c21 (stereo partly shown) [I-239] | < 0.05
CN(C[C@H]1CC[C@H](n2cc3cc(NC(=O)c4cccc(C(F)(F)F)n4)c(N4C[C@@H]5C[C@H]4CO5)cc3n2)CC1)C1CCN(c2cccc3c2n(C)c(=O)n3C2CCC(=O)NC2=O)CC1 (stereo partly shown) [I-179] | < 0.05
CN(C[C@H]1CC[C@H](n2cc3cc(NC(=O)c4cccc(C(F)(F)F)n4)c(C(C)(C)O)cc3n2)CC1)C1CCN(Cc2ccc3c(c2)C(=O)N(C)C3C2CCC(=O)NC2=O)CC1 (stereo partly shown) [I-279] | < 0.05
CN(C[C@H]1CC[C@H](n2cc3cc(NC(=O)c4cnn5cccnc45)c(N4CCOCC4)cc3n2)CC1)C1CCN(Cc2cccc3c2n(C)c(=O)n3C2CCC(=O)NC2=O)CC1 (stereo partly shown) [I-116] | < 0.05
COc1cc2nn([C@H]3CC[C@H](CN4CCN(c5ccc6c(c5)n(C)c(=O)n6C5CCC(=O)NC5=O)CC4)CC3)cc2cc1NC(=O)c1cccc(C(C)(C)F)n1 (stereo partly shown) [I-156] | 0.05 to 0.1
COc1cc2nn([C@H]3CC[C@H](CN4CCC(c5cccc6c5n(C)c(=O)n6C5CCC(=O)N(C)C5=O)CC4)CC3)cc2cc1NC(=O)c1cccc(C(F)(F)F)n1 (stereo partly shown) [I-257] | 0.5 to 1
Cn1c(=O)n(C2CCC(=O)NC2=O)c2ccc(C3CN(C[C@H]4CC[C@H](n5cc6cc(NC(=O)c7cccc(C(C)(C)F)n7)c(C(F)F)cc6n5)CC4)C3)cc21 (stereo partly shown) [I-99] | 0.05 to 0.1
Cn1c(=O)n(C2CCC(=O)NC2=O)c2cccc(C3CCN(C[C@H]4CC[C@H](n5cc6cc(NC(=O)c7cnccn7)c(C(C)(C)O)cc6n5)CC4)CC3)c21 (stereo partly shown) [I-320] | < 0.05

same assay, conditions: OCI-LY10 cells, 24 hrs incubation, read-out: IRAK4 degradation in OCI-LY10 at 24 hrs: DC50

SMILES | DC50 [µM]
COc1cc2nn([C@H]3CC[C@H](CN4CCC5(CC4)CC(CNc4cccc6c4C(=O)N([C@@H]4CCC(=O)NC4=O)C6=O)C5)CC3)cc2cc1NC(=O)c1cccc(C(F)(F)F)n1 [I-130, N-[2-[4-[[2-[[[2-[(3R)-2,6-dioxo-3-piperidyl]-1,3-dioxo-isoindolin-4-yl]amino]methyl]-7-azaspiro[3.5]nonan-7-yl]methyl]cyclohexyl]-6-methoxy-indazol-5-yl]-6-(trifluoromethyl)pyridine-2-carboxamide] | 0.05 to 0.1
CN(CCCO[C@H]1C[C@H](Nc2cccc3c2C(=O)N(C2CCC(=O)NC2=O)C3=O)C1)C[C@@]1(C)Cc2cc(NC(=O)c3cccc(C(F)(F)F)n3)c(N3CCOCC3)cc2O1 (stereo partly drawn) [I-256, N-((2R)-2-(((3-((1r,3R)-3-((2-(2,6-Dioxopiperidin-3-yl)-1,3-dioxoisoindolin-4-yl)amino)cyclobutoxy)propyl)(methyl)amino)methyl)-2-methyl-6-morpholino-2,3-dihydrobenzofuran-5-yl)-6-(trifluoromethyl)picolinamide] | 0.5 to 1
CC(C)(O)c1cc2c(cnn2CCN2CCC3(CC2)CC(CCNc2cccc4c2C(=O)N(C2CCC(=O)NC2=O)C4=O)C3)cc1NC(=O)c1cccc(C(F)(F)F)n1 (stereo not shown) [I-87] | 0.5 to 1
COc1cc2nn([C@H]3CC[C@H](CN4CCC5(CC4)CC(CCNc4cccc6c4C(=O)N(C4CCC(=O)NC4=O)C6=O)C5)CC3)cc2cc1NC(=O)[C@@H]1CCCCN1 (stereo partly shown) [I-143] | 0.5 to 1
CN(C[C@H]1CC[C@H](n2cc3cc(NC(=O)c4cccc(C(C)(C)C)n4)c(C(C)(C)O)cc3n2)CC1)[C@H]1CC[C@H](Nc2cccc3c2C(=O)N(C2CCC(=O)NC2=O)C3=O)CC1 (stereo partly shown) [I-236] | 0.05 to 0.1
COc1cc2nn([C@H]3CC[C@H](CN4CCC5(CC4)CC(CCNc4cccc6c4C(=O)N(C4CCC(=O)NC4=O)C6=O)C5)CC3)cc2cc1NC(=O)c1cccc(C(C)(F)F)n1 (single isomer, unassigned) [I-128] | 0.05 to 0.1
CC(C)(O)c1cc2nn([C@H]3CC[C@H](CN4CCC5(CC4)CC(CNc4cccc6c4C(=O)N(C4CCC(=O)NC4=O)C6=O)C5)CC3)cc2cc1NC(=O)c1cccc(C(C)(C)F)n1 (stereo partly shown) [I-251] | 0.05 to 0.1
